Test results from patent publication US9266867B2, “Piperidinyl monocarboxylic acids as S1P1 receptor agonists” (BIOPROJET, priority 2011, dated 2016).
Counter-ions that a name gives are not always drawn.

Each compound was assayed against EDG-1 (Homo sapiens, UniProt P21453) (assay: 35S-GTPγS binding assay, EDG1 (S1P1)). Conditions: not given.
Assay type: biochemical
Design: expressed in transfected cells
Procedure: a) 35S-GTPγS Binding Assay GTP-γ-^35S binding was performed using […]15 μg protein of cell membranes suspended in 50 mM tris-HCl pH 7.5 containing 10 mM MgCl2, 100 mM NaCl and 10 μM GDP. The radioligand was 0.025 nM [^35S] GTP-γ-S and non specific binding determined in the presence of 10 μM non-radioactive GTP-γ-S. […] The maximal stimulation elicited by S1P was taken as a reference to define full or partial agonism and calculate the intrinsic activity (i.a.) of compounds.

Chain of EDG-1 (P21453 whole entry): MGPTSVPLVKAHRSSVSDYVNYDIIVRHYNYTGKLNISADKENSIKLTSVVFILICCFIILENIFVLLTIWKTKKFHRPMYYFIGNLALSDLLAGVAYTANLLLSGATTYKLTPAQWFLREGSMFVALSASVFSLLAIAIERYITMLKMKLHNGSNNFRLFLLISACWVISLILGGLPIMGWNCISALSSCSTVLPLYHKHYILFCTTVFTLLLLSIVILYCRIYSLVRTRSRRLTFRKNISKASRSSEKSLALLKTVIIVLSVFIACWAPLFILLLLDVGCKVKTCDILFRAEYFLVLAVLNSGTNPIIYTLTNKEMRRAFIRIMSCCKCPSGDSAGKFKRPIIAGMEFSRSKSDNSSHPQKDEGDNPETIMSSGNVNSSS

Row | Compound | EC50 [nM]
1 | CC(C)Cc1ccc(-c2nc(-c3ccc(CN4CCC(C(=O)O)(c5ccccc5)CC4)cc3)no2)cc1Cl [Example 23, 1-{4-[5-(3-Chloro-4-isobutylphenyl)-[1,2,4]-oxadiazol-3-yl]-benzyl}-4-phenylpiperidine-4-carboxylic acid tert-butyl amine salt] | < 10

Same assay, conditions: Table 1b; read-out: EDG1 EC50

Row | Compound | EC50 [nM]
2 | COCC1(C(=O)O)CCN(Cc2ccc(-c3noc(-c4ccc(OC(C)C)c(Cl)c4)n3)cc2)CC1 [Example 57, 1-{4-[5-(3-Chloro-4-isopropoxy-phenyl)-[1,2,4]-oxadiazol-3-yl]-benzyl}-4-methoxymethyl-piperidine-4-carboxylic acid tert-butyl amine salt] | < 10
3 | CCC1(C(=O)O)CCN(Cc2ccc(-c3noc(-c4ccc(OC(C)C)c(Cl)c4)n3)cc2)CC1 [Example 48, 1-{4-[5-(3-Chloro-4-isopropoxy-phenyl)-[1,2,4]-oxadiazol-3-yl]-benzyl}-4-ethyl-piperidine-4-carboxylic acid tert-butyl amine salt] | < 10
4 | CC(C)Cc1ccc(-c2nc(-c3ccc(CN4CCC(CC(C)C)(C(=O)O)CC4)cc3)no2)cc1Cl [Example 36, 1-{4-[5-(3-Chloro-4-isobutyl-phenyl)-[1,2,4]-oxadiazol-3-yl]-benzyl}-4-isobutyl-piperidine-4-carboxylic acid tert-butyl amine salt] | < 10
5 | COCCOCC1(C(=O)O)CCN(Cc2ccc(-c3noc(-c4ccc(CC(C)C)c(Cl)c4)n3)cc2)CC1 [Example 33, 1-{4-[5-(3-chloro-4-isobutylphenyl)-[1,2,4]-oxadiazol-3-yl]benzyl}-4-(2-methoxyethoxymethyl)piperidine-4-carboxylic acid potassium salt] | < 1
6 | CC(C)Cc1ccc(-c2nc(-c3ccc(CN4CCC(Cc5cccs5)(C(=O)O)CC4)cc3)no2)cc1Cl [Example 62, 1-{4-[5-(3-Chloro-4-isobutyl-phenyl)-[1,2,4]-oxadiazol-3-yl]-benzyl}-4-thiophen-2-ylmethyl-piperidine-4-carboxylic acid tert-butyl amine salt] | < 1
7 | CC(C)Cc1ccc(-c2nc(-c3ccc(CN4CCC(COC5CCCC5)(C(=O)O)CC4)cc3)no2)cc1Cl [Example 61, 1-{4-[5-(3-Chloro-4-isobutyl-phenyl)-[1,2,4]-oxadiazol-3-yl]-benzyl}-4-cyclopentyloxymethyl-piperidine-4-carboxylic acid tert-butyl amine salt] | < 1
8 | CC1(C(=O)O)CCN(Cc2ccc(-c3noc(-c4ccc(C(C)(C)C)c(Cl)c4)n3)cc2)CC1 [Example 45, 1-{4-[5-(4-tert-Butyl-3-chloro-phenyl)-[1,2,4]-oxadiazol-3-yl]-benzyl}-4-methyl-piperidine-4-carboxylic acid tert-butyl amine salt] | < 10
9 | CC(C)Cc1ccc(-c2nc(-c3ccc(CN4CCC(CCCN5CCCC5)(C(=O)O)CC4)cc3)no2)cc1Cl [Example 66, 1-{4-[5-(3-Chloro-4-isobutyl-phenyl)-[1,2,4]-oxadiazol-3-yl]-benzyl}-4-(3-pyrrolidin-1-yl-propyl)-piperidine-4-carboxylic acid tert-butyl amine salt] | < 10
10 | COCC1(C(=O)O)CCN(Cc2ccc(-c3noc(-c4ccc(CC(C)C)c(Cl)c4)n3)cc2)CC1 [Example 16, 1-{4-[5-(3-Chloro-4-isobutylphenyl)-[1,2,4]-oxadiazol-3-yl]-benzyl}-4-methoxymethylpiperidine-4-carboxylic acid tert-butyl amine salt] | < 1
11 | CC(C)Cc1ccc(-c2nc(-c3ccc(CN4CCC(Cc5c(F)cccc5F)(C(=O)O)CC4)cc3)no2)cc1Cl [Example 35, 1-{4-[5-(3-Chloro-4-isobutyl-phenyl)-[1,2,4]-oxadiazol-3-yl]-benzyl}-4-(2,6-difluoro-benzyl)-piperidine-4-carboxylic acid tert-butyl amine salt] | < 1
12 | COCCCCC1(C(=O)O)CCN(Cc2ccc(-c3noc(-c4ccc(CC(C)C)c(Cl)c4)n3)cc2)CC1 [Example 32, 1-{4-[5-(3-Chloro-4-isobutylphenyl-[1,2,4]-oxadiazol-3-yl]benzyl}-4-(4-methoxybutyl)piperidine-4-carboxylic acid tert-butylamine salt] | < 1
13 | CC(C)Cc1ccc(-c2nc(-c3ccc(CN4CCC(CCCN5CCCCC5)(C(=O)O)CC4)cc3)no2)cc1Cl [Example 65, 1-{4-[5-(3-Chloro-4-isobutyl-phenyl)-[1,2,4]-oxadiazol-3-yl]-benzyl}-4-(3-piperidin-1-yl-propyl)-piperidine-4-carboxylic acid tert-butyl amine salt] | < 10
14 | CC(C)Cc1ccc(-c2nc(-c3ccc(CN4CCC(C)(C(=O)O)CC4)cc3)no2)cc1 [Example 31, 1-{4-[5-(4-Isobutyl-phenyl)-[1,2,4]-oxadiazol-3-yl]-benzyl}-4-methyl-piperidine-4-carboxylic acid tert-butyl amine salt] | < 10
15 | C=CCC1(C(=O)O)CCN(Cc2ccc(-c3noc(-c4ccc(OC(C)C)c(Cl)c4)n3)cc2)CC1 [Example 49, 4-Allyl-1-{4-[5-(3-chloro-4-isopropoxy-phenyl)-[1,2,4]-oxadiazol-3-yl]-benzyl}-piperidine-4-carboxylic acid tert-butyl amine salt] | < 1
16 | CC(C)Cc1ccc(-c2nc(-c3ccc(CN4CCC(Cc5ccco5)(C(=O)O)CC4)cc3)no2)cc1Cl [Example 39, 1-{4-[5-(3-Chloro-4-isobutyl-phenyl)-[1,2,4]-oxadiazol-3-yl]-benzyl}-4-furan-2-ylmethyl-piperidine-4-carboxylic acid tert-butyl amine salt] | < 10

Results, then the compound that gave them:

Row | EC50 [nM] | Compound
17 | < 1 | O=C(O)C1(Cc2cccnc2)CCN(Cc2ccc(-c3noc(-c4ccc(-c5ccccc5)c(Cl)c4)n3)cc2)CC1 [Example 58, 1-{4-[5-(2-Chloro-biphenyl-4-yl)-[1,2,4]-oxadiazol-3-yl]-benzyl}-4-pyridin-3-ylmethyl-piperidine-4-carboxylic acid tert-butyl amine salt]
18 | < 1 | CC(C)Cc1ccc(-c2nc(-c3ccc(CN4CCC(COCc5ccccc5)(C(=O)O)CC4)cc3)no2)cc1Cl [Example 21, 4-Benzyloxymethyl-1-[4-{5-(3-chloro-4-isobutylphenyl)-[1,2,4]-oxadiazol-3-yl]-benzyl}piperidine-4-carboxylic acid tert-butyl amine salt]
19 | < 1 | CC(C)Cc1ccc(-c2nc(-c3ccc(CN4CCC(Cc5ccncc5)(C(=O)O)CC4)cc3)no2)cc1Cl [Example 43, 1-{4-[5-(3-Chloro-4-isobutyl-phenyl)-[1,2,4]-oxadiazol-3-yl]-benzyl}-4-pyridin-4-ylmethyl-piperidine-4-carboxylic acid tert-butyl amine salt]
20 | < 1 | O=C(O)C1(COCc2ccccc2)CCN(Cc2ccc(-c3noc(-c4ccc(-c5ccccc5)c(Cl)c4)n3)cc2)CC1 [Example 20, 4-Benzyloxymethyl-1-{4-[5-(2-chlorobiphenyl-4-yl)-[1,2,4]-oxadiazol-3-yl]-benzyl}piperidine-4-carboxylic acid tert-butyl amine salt]
21 | < 1 | C=CCC1(C(=O)O)CCN(Cc2ccc(-c3noc(-c4ccc(-c5ccccc5)c(Cl)c4)n3)cc2)CC1 [Example 17, 4-Allyl-1-{4-[5-(2-chlorobiphenyl-4-yl)-[1,2,4]-oxadiazol-3-yl]-benzyl}piperidine-4-carboxylic acid tert-butyl amine salt]
22 | < 1 | COCC1(C(=O)O)CCN(Cc2ccc(-c3noc(-c4ccc(-c5ccccc5)c(Cl)c4)n3)cc2)CC1 [Example 29, 1-{4-[5-(2-chlorobiphenyl-4-yl)-[1,2,4]-oxadiazol-3-yl]benzyl}-4-methoxymethylpiperidine-4-carboxylic acid tert-butyl amine salt]
23 | < 1 | CC(C)Cc1ccc(-c2nc(-c3ccc(CN4CCC(Cc5ccccc5F)(C(=O)O)CC4)cc3)no2)cc1Cl [Example 26, 1-{4-[5-(3-Chloro-4-isobutyl-phenyl)-[1,2,4]-oxadiazol-3-yl]-benzyl}-4-(2-fluoro-benzyl)-piperidine-4-carboxylic acid tert-butyl amine salt]
24 | < 1 | CC(C)Cc1ccc(-c2nc(-c3ccc(CN4CCC(Cc5cccnc5)(C(=O)O)CC4)cc3)no2)cc1Cl [Example 42, 1-{4-[5-(3-Chloro-4-isobutyl-phenyl)-[1,2,4]-oxadiazol-3-yl]-benzyl}-4-pyridin-3-ylmethyl-piperidine-4-carboxylic acid tert-butyl amine salt]
25 | < 1 | CC(C)Cc1ccc(-c2nc(-c3ccc(CN4CCC(Cc5ccccn5)(C(=O)O)CC4)cc3)no2)cc1Cl [Example 40, 1-{4-[5-(3-Chloro-4-isobutyl-phenyl)-[1,2,4]-oxadiazol-3-yl]-benzyl}-4-pyridin-2-ylmethyl-piperidine-4-carboxylic acid tert-butyl amine salt]
26 | < 1 | COc1ccc(CC2(C(=O)O)CCN(Cc3ccc(-c4noc(-c5ccc(-c6ccccc6)c(Cl)c5)n4)cc3)CC2)cc1 [Example 51, 1-{4-[5-(2-Chloro-biphenyl-4-yl)-[1,2,4]-oxadiazol-3-yl]-benzyl}-4-(4-methoxy-benzyl)-piperidine-4-carboxylic acid tert-butyl amine salt]
27 | < 1 | CC(C)Cc1ccc(-c2nc(-c3ccc(CN4CCC(CCOc5ccccc5)(C(=O)O)CC4)cc3)no2)cc1Cl [Example 34, 1-{4-[5-(3-Chloro-4-isobutyl-phenyl)-[1,2,4]-oxadiazol-3-yl]-benzyl}-4-(2-phenoxy-ethyl)-piperidine-4-carboxylic acid tert-butyl amine salt]
28 | < 1 | CC(C)Cc1ccc(-c2nc(-c3ccc(CN4CCC(Cc5ccc(F)cc5)(C(=O)O)CC4)cc3)no2)cc1Cl [Example 25, 1-{4-[5-(3-Chloro-4-isobutyl-phenyl)-[1,2,4]-oxadiazol-3-yl]-benzyl}-4-(4-fluoro-benzyl)-piperidine-4-carboxylic acid tert-butyl amine salt]
